Measurements reported in publication PMC5142287, “Weight control interventions improve therapeutic efficacy of dacarbazine in melanoma by reversing obesity-induced drug resistance” (Cancer & Metabolism, 2016).

Key:
[1] = Obesity-associated factors in B16F10-isografted HFD C57BL/6J mice (body weight, blood glucose, serum lipids, ELISA); type: in vivo; details: end of experiment, mean ± SD
Description: C57BL/6J mice were procured from Experimental Animal Facility (EAF) at National Centre for Cell Science (NCCS), Pune, India. High fat diet (24% fat) was purchased from Provimi Animal Nutrition Pvt. Ltd., Bangalore, India, and normal diet (5% fat) was obtained from Amrut Laboratory, Pune, India. The compositions of diets are provided in supplementary data (Additional file 1: Table S1). Diet-induced obesity was developed in the mice by feeding them with high fat diet as described previously. Male C57BL/6J mice (6–8 weeks old) were divided into normal diet (ND) and high fat diet (HFD) group. ND group was fed with normal diet while HFD group was fed with high fat diet supplemented with ground nut and dried coconut for 6 months. Body weight and serum chemistry profile were measured monthly to verify obesity-associated changes. Water and food were provided ad libitum to all the mice. All animal experiments were carried out as per the requirement and guidelines of the Committee for the Purpose of Control and Supervision of Experiments on Animals (CPCSEA), Government of India, and after obtaining permission of the Institutional Animal Ethics Committee (IAEC).
(§1) Blood glucose levels and serum lipids were estimated as described previously. Insulin, leptin, and adiponectin levels in the serum were estimated by mouse-specific respective ELISA kits as described. Resistin, IL-6, and TNF-α levels in the serum were detected by indirect ELISA as described previously.
(§2) To study the impact of diet-induced obesity on the outcome of DTIC therapy in melanoma, we treated B16F10 melanoma isografted obese mice with DTIC purchased from Sigma, USA (80 mg/kg intraperitoneally for five consecutive days as described previously). In addition, to look into the impact of weight loss interventions on the outcome of DTIC therapy in obese mice, mice were administered with orlistat (an antiobesity drug known to inhibit gastrointestinal lipases) and/or shifted from high fat to normal diet followed by DTIC treatment. The detailed experimental plan is illustrated in Fig. 1a. Briefly, obese mice were administered orally with orlistat (10 mg/kg on every alternate day) purchased from Enzo Life Sciences, NY, USA, and/or shifted from high fat diet to normal diet. HFD C57BL/6J mice treated with vehicle or orlistat were termed as HFD-HFD Ctrl and HFD-HFD Orli (N = 11 per each group), respectively, whereas HFD C57BL/6J mice shifted to normal diet and treated with vehicle or orlistat were grouped as HFD-ND Ctrl and HFD-ND Orli (N = 11 per each group), respectively. After 15 days, these mice were injected subcutaneously (s.c.) with B16F10 cells (2 × 10^5) in 100 μl of PBS and monitored daily for the presence of palpable tumors and dimensions were recorded on alternate days. […] Tumor volume was calculated using the formula 0.52 × length × width^2 and was followed up throughout the study.

[2] = Obesity-associated factors in B16F10-isografted ND C57BL/6J mice; type: in vivo; details: end of experiment
Description: as §1

B16F10 melanoma [3] = assay: B16F10 melanoma isograft in HFD (obese) C57BL/6J mice: tumor growth and survival; type: in vivo; details: HFD mice, vs untreated counterparts
Procedure: as §2

3T3-L1 adipocytes = test system: 3T3-L1 adipocytes; parameters: method as in PMID 10840932; details: cited from earlier work
B16F10 melanoma [4] = assay: B16F10 melanoma isograft in ND C57BL/6J mice: tumor growth and survival
Procedure: Melanoma cells were injected and orlistat treatment was continued. Following tumor formation, all groups of mice were treated with vehicle (acidified water) or DTIC, and tumor volume was followed up in these mice throughout the study as mentioned above. […] At the end of the experiment, mice were sacrificed, tumors were excised, and the samples were immediately preserved at −80 °C until further use. Five mice from each group were followed up for survival studies as mentioned above.

With `CCCCCCCCCCC[C@@H](C[C@@H]1OC(=O)[C@H]1CCCCCC)OC(=O)[C@H](CC(C)C)NC=O` [orlistat] the Body weight ([1]; HFD-HFD (continued on HFD), orlistat 10 mg/kg oral alternate days, DTIC 80 mg/kg i.p. 5 days) was 26.16 ± 0.71 (p < 0.0001) g, the Blood glucose ([1]; HFD-HFD) was 146.3 ± 5.99 (p < 0.0001) mg/dl and the “Serum IL-6” value ([1]; HFD-HFD) was 35.45 ± 2.88 (p < 0.0001) pg/ml. The “Serum LDLc” value ([1]; HFD-HFD) was 66.69 ± 3.42 (p < 0.0001) mg/dl, the “Serum TG” value ([1]; HFD-HFD) was 66.03 ± 3.39 (p < 0.0001) mg/dl and the “Serum TNF-α” value ([1]; HFD-HFD) was 13.78 ± 1.07 (p < 0.0001) pg/ml. The Serum adiponectin ([1]; HFD-HFD) was 8204 ± 593 (p < 0.0001) ng/ml, the Serum cholesterol ([1]; HFD-HFD) was 95.75 ± 4.91 (p < 0.0001) mg/dl and the “Serum free fatty acids” value ([1]; HFD-HFD) was 1.74 ± 0.09 (p < 0.0001) mM/l. For the same compound, the Serum insulin ([1]; HFD-HFD) was 0.269 ± 0.01 (p < 0.0001) μg/l, the Serum leptin ([1]; HFD-HFD) was 33.74 ± 2.47 (p < 0.0001) ng/ml and the Serum resistin ([1]; HFD-HFD) was 1.66 ± 0.08 (p < 0.0001) ng/ml. The Body weight ([1]; HFD-ND (shifted from HFD to normal diet)) was 23.1 ± 1.02 (p < 0.0001) g, the Blood glucose ([1]; HFD-ND) was 128.83 ± 6.24 (p < 0.0001) mg/dl and the “Serum IL-6” value ([1]; HFD-ND) was 29.25 ± 2.12 (p < 0.0001) pg/ml. The “Serum LDLc” value ([1]; HFD-ND) was 63.31 ± 3.13 (p < 0.0001) mg/dl, the “Serum TG” value ([1]; HFD-ND) was 60.53 ± 3.15 (p < 0.0001) mg/dl and the “Serum TNF-α” value ([1]; HFD-ND) was 11.48 ± 1.12 (p < 0.0001) pg/ml. The Serum adiponectin ([1]; HFD-ND) was 9108 ± 550 (p < 0.0001) ng/ml, the Serum cholesterol ([1]; HFD-ND) was 88.64 ± 5.17 (p < 0.0001) mg/dl and the “Serum free fatty acids” value ([1]; HFD-ND) was 1.66 ± 0.08 (p < 0.0001) mM/l. The Serum insulin ([1]; HFD-ND) was 0.2570 ± 0.01 (p < 0.0001) μg/l, the Serum leptin ([1]; HFD-ND) was 26.54 ± 1.60 (p < 0.0001) ng/ml and the Serum resistin ([1]; HFD-ND) was 1.19 ± 0.06 (p < 0.0001) ng/ml. The Blood glucose ([2]; mean) was 161.83 mg/dL, the “Serum IL-6” value ([2]; mean) was 19.99 pg/mL and the “Serum LDLc” value ([2]; mean) was 51.26 mg/dL. The “Serum TG” value ([2]; mean) was 54.93 mg/dL, the “Serum TNF-D” value ([2]; mean) was 11.78 pg/mL and the Serum adiponectin ([2]; mean) was 13803 ng/mL. For the same compound, the Serum cholesterol ([2]; mean) was 81.36 mg/dL, the “Serum free fatty acids” value ([2]; mean) was 0.89 mM/L and the Serum insulin ([2]; mean) was 0.116 µg/L. It also gave a Serum leptin ([2]; mean) of 15.43 ng/mL, a Serum resistin ([2]; mean) of 0.98 ng/mL and a Body weight ([2]; mean (SD on next line)) of 21.50 g. For the same compound, the Tumor growth (B16F10 melanoma [3]) was “restricted tumor growth”, the “Differentiation of 3T3-L1 adipocytes” value (3T3-L1 adipocytes) was “inhibited” and the “Survival of tumor-bearing mice” value (B16F10 melanoma [4]) was “did not influence”. For the same compound, the “Tumor progression (tumor volume and weight)” value (B16F10 melanoma [4]; DTIC 80 mg/kg i.p. 5 days, orlistat 10 mg/kg oral alternate days) was “unaltered”.
